Here are results for 14 compounds from ChEMBL document CHEMBL1201862, “PubChem BioAssay data set” (2004).

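Cells were grown in 96-well plates and exposed to each compound for 48 hours at five concentrations; endpoints were interpolated linearly between bracketing concentrations, or set to the highest concentration if not reached. Here, GI50 denotes the concentration required for 50% inhibition of growth.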 Calls of active or inactive are those of the source. No stated cut-off is given here; in the data, active = GI50 up to about 1.1 µM and inactive = higher. Where only a bound is given, the exact number is not on record here.

Test systems include CCRF-CEM; HL-60; HOP-92; HT-29; KM12; M14; M19-MEL; OVCAR-8; SF-539; SK-MEL-2; SK-MEL-5; SNB-19; UACC-62; Malme-3M; SK-MEL-28; BT-549; DU-145; Hs-578T; MCF7; MDA-MB-231.
Holding throughout (assay): growth of human tumour cells (NCI), 48 h

For the compound `Nc1nc(Cl)cc(NCCCCCCCCCCNc2cc(Cl)nc(N)n2)n1`, the GI50 in the assay with CCRF-CEM is 18.9 µM (inactive); in the assay with HL-60 it was 2.34 µM (inactive); in the assay with HOP-92, 28.6 µM (inactive); in the assay with HT-29 it was 8.93 µM (inactive); with KM12, 10.9 µM (inactive); in the assay on M14, 6.44 µM (inactive). Moreover, the GI50 was 7.4 µM (inactive) in the assay on M19-MEL; 12.2 µM (inactive) with OVCAR-8; 22.1 µM (inactive) in the assay on SF-539; 4.93 µM (inactive) in the assay with SK-MEL-2; 0.0982 µM (active) in the assay on SK-MEL-5; 75 µM (inactive) in the assay on SNB-19. Further, the GI50 in the assay on UACC-62 is 0.0226 µM (active).

In the case of `COC(=O)C(C)Oc1ccc(O)cc1` (stereo not given), the GI50 in the assay on CCRF-CEM, with HL-60, with HOP-92, with HT-29, in the assay with KM12 and in the assay on M14 was > 100 µM (inactive) throughout. Moreover, the GI50 was > 100 µM (inactive) in the assay on M19-MEL; > 100 µM (inactive) with Malme-3M; > 100 µM (inactive) in the assay on OVCAR-8; > 100 µM (inactive) with SF-539; 29.2 µM (inactive) in the assay on SK-MEL-28; > 100 µM (inactive) in the assay on SK-MEL-5. The GI50 in the assay on SNB-19 and with UACC-62 was > 100 µM (inactive) in each case.

As for `CC(C)=Cc1cc(C(=O)Nc2ccc(Cl)c(Cl)c2)nc(N)n1`, the GI50 in the assay on HL-60, in the assay with HOP-92, in the assay with HT-29, in the assay with KM12, in the assay with M14 and with M19-MEL was > 100 µM (inactive) each time. Further, the GI50 with Malme-3M, in the assay on OVCAR-8, with SF-539, in the assay with SK-MEL-28, in the assay with SK-MEL-2 and with SK-MEL-5 was > 100 µM (inactive) throughout. Besides, the GI50 in the assay on SNB-19 and in the assay with UACC-62 was > 100 µM (inactive) each time.

Take `COC(=O)[C@@H](NS(=O)(=O)CC12CCC(CC1)C2(C)C)C(C)(C)C`: the GI50 in the assay on BT-549, in the assay on CCRF-CEM, with DU-145, in the assay with HL-60, with HOP-92 and in the assay on HT-29 was > 100 µM (inactive) throughout. Besides, the GI50 in the assay with Hs-578T, in the assay with KM12, with M14, with MCF7, in the assay with MDA-MB-231 and in the assay with Malme-3M was > 100 µM (inactive) each time. Moreover, the GI50 with OVCAR-8, in the assay with SF-539, with SK-MEL-28, with SK-MEL-2, in the assay with SK-MEL-5 and with SNB-19 was > 100 µM (inactive) throughout. The GI50 in the assay on UACC-62 was > 100 µM (inactive).

For `C1CN2N3CCCC23C1` (stereo not given), the GI50 in the assay with CCRF-CEM, with HL-60, in the assay with HT-29, in the assay with KM12, in the assay on M14 and in the assay on M19-MEL was > 100 µM (inactive) in each case. In addition, the GI50 in the assay with Malme-3M, with OVCAR-8, with SF-539, with SK-MEL-28, in the assay with SK-MEL-2 and in the assay on SK-MEL-5 was > 100 µM (inactive) in each case. Moreover, the GI50 in the assay with SNB-19 and with UACC-62 was > 100 µM (inactive) throughout.

For the compound `CC(C)COC(=O)c1ccc(/N=C\c2ccc(/C=N/c3ccc(C(=O)OCC(C)C)cc3)cc2)cc1`, the GI50 with HL-60, in the assay on HOP-92, in the assay on HT-29, with KM12, with M14 and in the assay on M19-MEL was > 100 µM (inactive) each time. Moreover, the GI50 in the assay with Malme-3M, in the assay on OVCAR-8, with SF-539, in the assay with SK-MEL-28, in the assay with SK-MEL-2 and in the assay with SNB-19 was > 100 µM (inactive) in each case. For the same compound, the GI50 in the assay on UACC-62 is > 100 µM (inactive).

As for `CC(C)OP(=O)(CN(C)/C(F)=N\C(F)(F)F)OC(C)C`, the GI50 with BT-549 was > 100 µM (inactive); in the assay with CCRF-CEM, > 100 µM (inactive); with DU-145 it was > 100 µM (inactive); in the assay on HL-60, 63.8 µM (inactive); with HOP-92 it was > 100 µM (inactive); in the assay with HT-29, > 100 µM (inactive). For the same compound, the GI50 with Hs-578T, in the assay with KM12, in the assay on M14, with MCF7, in the assay with MDA-MB-231 and in the assay with Malme-3M was > 100 µM (inactive) each time. The GI50 in the assay on OVCAR-8, with SF-539, with SK-MEL-28, in the assay on SK-MEL-2, in the assay on SK-MEL-5 and in the assay on SNB-19 was > 100 µM (inactive) throughout. Further, the GI50 in the assay on UACC-62 is > 100 µM (inactive).

On to `Cc1ccc2nc(NC(=O)C(=O)C(C#N)c3ccc(Cl)cc3)sc2c1` (stereo not given), for which the GI50 with HOP-92, with HT-29, in the assay with KM12, in the assay on M14, in the assay with M19-MEL and in the assay on Malme-3M was > 50 µM (inactive) each time. Besides, the GI50 with OVCAR-8, in the assay with SF-539, in the assay with SK-MEL-28, in the assay with SK-MEL-2, with SNB-19 and in the assay with UACC-62 was > 50 µM (inactive) each time.

As to `NCCNC(=O)c1cccc2cc3ccccc3nc12`, the GI50 in the assay with HOP-92 was 19.6 µM (inactive); with HT-29 it was 1.87 µM (inactive); in the assay on KM12 it was 4.03 µM (inactive); in the assay with M14 it was 3.53 µM (inactive); in the assay with M19-MEL, 1.79 µM (inactive); in the assay on Malme-3M, 0.495 µM (active). The GI50 is 2.08 µM (inactive) with OVCAR-8; 4.35 µM (inactive) with SF-539; 3 µM (inactive) in the assay on SK-MEL-28; 2.47 µM (inactive) in the assay with SK-MEL-2; 2.23 µM (inactive) with SK-MEL-5; 4.09 µM (inactive) with SNB-19. In the assay on UACC-62, the GI50 was 2.75 µM (inactive).

`CCOC(=O)C(NC(=O)c1ccccc1)(Nc1ccc(Cl)cc1C(F)(F)F)C(F)(F)F` (stereo not given): the GI50 in the assay with BT-549 is 6.37 µM (inactive); in the assay on CCRF-CEM, 1.7 µM (inactive); with DU-145, 12.9 µM (inactive); in the assay on HL-60, 1.98 µM (inactive); in the assay on HOP-92 it was 4.99 µM (inactive); in the assay on HT-29, 2.15 µM (inactive). The GI50 in the assay on Hs-578T is 39.3 µM (inactive); with KM12, 1.42 µM (inactive); with M14, 4.13 µM (inactive); in the assay on MCF7 it was 4.83 µM (inactive); with MDA-MB-231 it was 6.31 µM (inactive); with Malme-3M, 3.37 µM (inactive). For the same compound, the GI50 with OVCAR-8 was 5.36 µM (inactive); in the assay with SF-539, 5.71 µM (inactive); in the assay with SK-MEL-28, 6.97 µM (inactive); in the assay with SK-MEL-2, 4.74 µM (inactive); with SK-MEL-5, 4.91 µM (inactive); with SNB-19 it was 5.48 µM (inactive). The GI50 in the assay with UACC-62 is 5.3 µM (inactive).

`C/C(=N\NS(=O)(=O)c1ccc(C)cc1)c1ccc[n+]([O-])n1`: the GI50 in the assay on CCRF-CEM is 25.2 µM (inactive); in the assay with HL-60 it was 26.9 µM (inactive); with HOP-92, 32.3 µM (inactive); in the assay with HT-29, > 100 µM (inactive); in the assay with KM12, > 100 µM (inactive); in the assay with M14 it was 39.6 µM (inactive). The GI50 is > 100 µM (inactive) in the assay on M19-MEL; 99.3 µM (inactive) in the assay with OVCAR-8; > 100 µM (inactive) with SF-539; > 100 µM (inactive) with SK-MEL-28; > 100 µM (inactive) in the assay with SK-MEL-5; > 100 µM (inactive) in the assay with SNB-19. Also, the GI50 with UACC-62 is > 100 µM (inactive).

Take `Cc1c(C(=O)/C=C/c2cccc3ccccc23)[n+]([O-])c2ccccc2[n+]1[O-]`: the GI50 with CCRF-CEM is 3.2 µM (inactive); in the assay with HL-60 it was 7.41 µM (inactive); in the assay on HOP-92, 10.1 µM (inactive); in the assay with HT-29, 12.3 µM (inactive); in the assay with KM12, 14 µM (inactive); with M14, 13.7 µM (inactive). Besides, the GI50 in the assay with M19-MEL was 11.9 µM (inactive); with Malme-3M, 18.6 µM (inactive); in the assay on OVCAR-8 it was 11 µM (inactive); in the assay with SF-539, 11.4 µM (inactive); in the assay on SK-MEL-28, 13 µM (inactive); in the assay with SNB-19, 15.7 µM (inactive). Also, the GI50 with UACC-62 was 11.3 µM (inactive).

Consider `O=C1C2c3[nH]c4ccccc4c3C3CCCC3C2C(=O)N1c1ccccc1` (stereo not given), for which the GI50 in the assay with CCRF-CEM, in the assay on HT-29, with KM12, in the assay with M14, in the assay with M19-MEL and in the assay with Malme-3M was > 100 µM (inactive) in each case. Also, the GI50 was 61.8 µM (inactive) in the assay on OVCAR-8; > 100 µM (inactive) with SF-539; > 100 µM (inactive) in the assay on SK-MEL-28; > 100 µM (inactive) with SK-MEL-5; > 100 µM (inactive) in the assay on UACC-62.

`C[C@@]1(Cc2ccccc2)C(=O)N2[C@@H](CO)C(c3ccccc3)O[C@]2(C)c2ccccc21` (stereo not given in full): the GI50 was 81.1 µM (inactive) in the assay with CCRF-CEM; > 100 µM (inactive) with HL-60; > 100 µM (inactive) with HOP-92; > 100 µM (inactive) in the assay on KM12; > 100 µM (inactive) in the assay with M14; > 100 µM (inactive) in the assay on M19-MEL. Further, the GI50 in the assay with OVCAR-8, with SF-539, in the assay with SK-MEL-28, with SK-MEL-2, in the assay on SK-MEL-5 and in the assay on SNB-19 was > 100 µM (inactive) in each case. For the same compound, the GI50 with UACC-62 is > 100 µM (inactive).
